From PMC11800161 (ACS Omega, 2025)
Values after ≈ are worked out from the molar mass of the structure shown.

Experiments:
S. faecalis (MTCC- 0459) = assay: Broth microdilution MIC/MBC, S. faecalis; format: cell-based, Streptococcus faecalis; conditions: for MIC: Enterococcus faecalis, MTCC0459; for antibacterial potency relative to penicillin G (times greater): by MIC, organism not named in the sentence (values match S. faecalis)
[1] = tested on: Bacillus pumilis (MTCC- 2296); assay: Broth microdilution MIC/MBC, B. pumilis; format: cell-based; conditions: for potency relative to penicillin G (times greater): B. pumilis, by MIC; for MIC: Bacillus, MTCC2296
E. coli (ATCC- 25955) = assay: microbe, parasite or virus in culture; format: cell-based; conditions: Escherichia coli, ATCC25955
[2] = tested on: hemolytic activity of E. coli; assay: Hemolysin inhibition assay, E. coli; format: cell-based; conditions: at 75%MBC, control 100% hemolysis
[3] = tested on: hemolytic activity of S. faecalis; assay: Hemolysin inhibition assay, S. faecalis; format: cell-based; conditions: at 75%MBC, control 100% hemolysis
[4] = tested on: Saccharomyces cerevisiae (ATCC-9763); assay: Broth microdilution MIC/MFC, S. cerevisiae; format: cell-based; conditions: ATCC9763
[5] = tested on: Enterobacter cloacae (ATCC- 23355); format: cell-based; conditions: E. cloacae
[6] = tested on: Candida albicans (ATCC-10231); assay: Broth microdilution MIC/MFC, C. albicans; format: cell-based; conditions: ATCC10231
E. coli MurA = E. coli MurA (Escherichia coli, UniProt P0A749); assay: MurA enzyme inhibition assay; format: biochemical
Chain of E. coli MurA (P0A749 whole entry): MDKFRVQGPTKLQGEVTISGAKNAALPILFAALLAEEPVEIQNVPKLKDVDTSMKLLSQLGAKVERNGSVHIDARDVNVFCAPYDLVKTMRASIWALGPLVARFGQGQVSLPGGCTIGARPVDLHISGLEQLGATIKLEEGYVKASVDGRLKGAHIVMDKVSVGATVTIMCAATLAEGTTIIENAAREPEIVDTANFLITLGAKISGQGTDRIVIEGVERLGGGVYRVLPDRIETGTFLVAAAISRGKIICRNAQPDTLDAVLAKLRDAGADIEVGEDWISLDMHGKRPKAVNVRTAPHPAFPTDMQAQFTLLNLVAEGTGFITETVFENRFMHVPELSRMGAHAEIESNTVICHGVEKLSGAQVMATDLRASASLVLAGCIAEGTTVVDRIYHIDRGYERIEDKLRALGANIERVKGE

For `Cc1ccc(-c2cc(-c3ccc(OCc4ccccc4)cc3)nc3c(N=Nc4ccc(F)cc4)c(N)nn23)cc1` [Compound 4a, 5-(4-(Benzyloxy)phenyl)-3-((4-fluorophenyl)diazenyl)-7-(p-tolyl)pyrazolo[1,5-a]pyrimidin-2-amine], the MIC (S. faecalis (MTCC- 0459)) was 3.91 µg/mL (≈ 7.4 µM) and the “antibacterial potency relative to penicillin G (times greater)” value (S. faecalis (MTCC- 0459)) was 8 times.
With `Cc1ccc(N=Nc2c(N)nn3c(-c4ccc(C)cc4)cc(-c4ccc(OCc5ccccc5)cc4)nc23)cc1` [Compound 4b, 5-(4-(Benzyloxy)phenyl)-7-(p-tolyl)-3-(p-tolyldiazenyl)pyrazolo[1,5-a]pyrimidin-2-amine] the “potency relative to penicillin G (times greater)” value [1] was 4 fold, the MIC [1] was 15.6 µg/mL (≈ 29.7 µM) and the MIC (S. faecalis (MTCC- 0459)) was 15.6 µg/mL (≈ 29.7 µM). For the same molecule, the MIC (E. coli (ATCC- 25955)) was 1.95 µg/mL (≈ 3.72 µM).
With `COc1ccc(N=Nc2c(N)nn3c(-c4ccc(C)cc4)cc(-c4ccc(OCc5ccccc5)cc4)nc23)cc1` [Compound 4c, 5-(4-(Benzyloxy)phenyl)-3-((4-methoxyphenyl)diazenyl)-7-(p-tolyl)pyrazolo[1,5-a]pyrimidin-2-amine] the “potency relative to penicillin G (times greater)” value [1] was 8 fold, the MIC [1] was 7.81 µg/mL (≈ 14.4 µM) and the MIC (S. faecalis (MTCC- 0459)) was 15.6 µg/mL (≈ 28.9 µM). The MIC (E. coli (ATCC- 25955)) was 1.95 µg/mL (≈ 3.61 µM), the hemolysis [2] was 7.1% and the hemolysis [3] was 3.3%.
`Nc1nn2c(-c3ccc(Cl)cc3Cl)cc(-c3ccc(OCc4ccccc4)cc3)nc2c1N=Nc1ccc(F)cc1` [Compound 4d, 5-(4-(Benzyloxy)phenyl)-7-(2,4-dichlorophenyl)-3-((4-fluorophenyl)diazenyl)pyrazolo[1,5-a]pyrimidin-2-amine] was tested, and the MIC [4] was 15.6 µg/mL (≈ 26.7 µM).
In the case of `Cc1ccc(N=Nc2c(N)nn3c(-c4ccc(Cl)cc4Cl)cc(-c4ccc(OCc5ccccc5)cc4)nc23)cc1` [Compound 4e, 5-(4-(Benzyloxy)phenyl)-7-(2,4-dichlorophenyl)-3-(p-tolyldiazenyl)pyrazolo[1,5-a]pyrimidin-2-amine], the MIC (S. faecalis (MTCC- 0459)) is reported as 7.81 µg/mL (≈ 13.5 µM) and the “antibacterial potency relative to penicillin G (times greater)” value (S. faecalis (MTCC- 0459)) is reported as 4 times.
`COc1ccc(N=Nc2c(N)nn3c(-c4ccc(Cl)cc4Cl)cc(-c4ccc(OCc5ccccc5)cc4)nc23)cc1` [Compound 4f, 5-(4-(Benzyloxy)phenyl)-7-(2,4-dichlorophenyl)-3-((4-methoxyphenyl)diazenyl)pyrazolo[1,5-a]pyrimidin-2-amine] was tested, and the “potency relative to penicillin G (times greater)” value [1] was 8 fold, the MIC [1] was 7.81 µg/mL (≈ 13.1 µM) and the MIC (S. faecalis (MTCC- 0459)) was 15.6 µg/mL (≈ 26.2 µM).
With `Nc1nn2c(-c3ccco3)cc(-c3ccc(OCc4ccccc4)cc3)nc2c1N=Nc1ccc(F)cc1` [Compound 4g, 5-(4-(Benzyloxy)phenyl)-3-((4-fluorophenyl)diazenyl)-7-(furan-2-yl)pyrazolo[1,5-a]pyrimidin-2-amine] the “potency relative to penicillin G (times greater)” value [1] was 16 fold, the MIC [1] was 3.91 µg/mL (≈ 7.75 µM) and the MIC (S. faecalis (MTCC- 0459)) was 1.95 µg/mL (≈ 3.87 µM). The “antibacterial potency relative to penicillin G (times greater)” value (S. faecalis (MTCC- 0459)) was 16 times.
With `Cc1ccc(N=Nc2c(N)nn3c(-c4ccco4)cc(-c4ccc(OCc5ccccc5)cc4)nc23)cc1` [Compound 4h, 5-(4-(Benzyloxy)phenyl)-7-(furan-2-yl)-3-(p-tolyldiazenyl)pyrazolo[1,5-a]pyrimidin-2-amine] the “potency relative to penicillin G (times greater)” value [1] was 16 fold, the MIC [1] was 3.91 µg/mL (≈ 7.81 µM) and the MIC (S. faecalis (MTCC- 0459)) was 15.6 µg/mL (≈ 31.2 µM). The MIC [4] was 15.6 µg/mL (≈ 31.2 µM).
In the case of `COc1ccc(N=Nc2c(N)nn3c(-c4ccco4)cc(-c4ccc(OCc5ccccc5)cc4)nc23)cc1` [Compound 4i, 5-(4-(Benzyloxy)phenyl)-7-(furan-2-yl)-3-((4-methoxyphenyl)diazenyl)pyrazolo[1,5-a]pyrimidin-2-amine], the “potency relative to penicillin G (times greater)” value [1] is reported as 4 fold, the MIC [1] is reported as 15.6 µg/mL (≈ 30.2 µM) and the MBC/MIC [5] is reported as 8. For the same molecule, the MIC [6] was 15.6 µg/mL (≈ 30.2 µM).
Molecule `CC1(C)S[C@@H]2[C@H](NC(=O)Cc3ccccc3)C(=O)N2[C@H]1C(=O)O` [Penicillin G, penicillin G, reference compound] has an MIC [1] of 62.5 µg/mL (≈ 187 µM) and an MIC (S. faecalis (MTCC- 0459)) of 31.5 µg/mL (≈ 94.2 µM).
In the case of `C[C@@H]1O[C@@H]1P(=O)(O)O` [fosfomycin, Fosfomycin], the IC50 (E. coli MurA) is reported as 69.8 µM.
